# Tests used:
# Assay in all cases: in vitro antibacterial evaluation, MIC by broth dilution
# Type in all cases: cell-based
# Enterococcus sp. = settings: broth dilution, 18 hours at 35° C.
# How it was run: (§1)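 Step 1: dilute antibiotic across 64-0.06 μg/mL in Muller-Hinton II […]. Step 2: inoculate at 5×10^5 CFU/mL.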
# Escherichia coli = settings: 18 hours at 35° C.
# How it was run: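 Test organisms, which included recent clinical isolates resistant to methicillin, penicillin and/or vancomycin, were inoculated at 5×10^5 CFU/mL into Muller-Hinton II […] containing antibiotic at 64-0.06 μg/mL. Minimum inhibitory concentrations were then read as the lowest level inhibiting growth.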
# Staphylococcus sp. = settings: broth dilution, 18 hours at 35° C.
# How it was run: as §1
# Streptococcus sp. = settings: broth dilution, 18 hours at 35° C.
# How it was run: as §1
smiles,measurement,setting,value
"CCC(C)C(=O)OC1C(CO)OC(OC2C(CO)OC(Oc3ccc(CC4NC(=O)C(C(C)c5ccccc5)NC(=O)CNC(=O)C(CO)NC(=O)C(C(O)C5CNC(=N)N5C5OC(CO)C(O)C(O)C5O)NC(=O)C(C(O)C5CNC(=N)N5)NC4=O)cc3)C(O)C2O)C(O)C1O (stereo not drawn) [Example 278c, Cyclo[glycyl-β-methylphenylalanyl-O-[4-O-[4-O-(2-methylbutanoyl)hexopyranosyl]hexopyranosyl]tyrosyl-3-(2-iminoimidazolidin-4-yl)seryl-3-(3-hexopyranosyl-2-iminoimidazolidin-4-yl)serylseryl]]",MIC Enterococcus avium (GC 4558),Enterococcus sp.; Enterococcus avium (GC 4558),32 µg/mL
same,MIC Enterococcus faecalis (ATCC 29212),Enterococcus sp.; Enterococcus faecalis (ATCC 29212),32 µg/mL
same,MIC Enterococcus faecalis (GC 4553),Enterococcus sp.; Enterococcus faecalis (GC 4553),32 µg/mL
same,MIC Enterococcus faecalis (GC 4554),Enterococcus sp.; Enterococcus faecalis (GC 4554),32 µg/mL
same,MIC Enterococcus faecalis (GC 6189),Enterococcus sp.; Enterococcus faecalis (GC 6189),32 µg/mL
same,MIC Enterococcus faecium (GC 2243),Enterococcus sp.; Enterococcus faecium (GC 2243),32 µg/mL
same,MIC Enterococcus faecium (GC 4556),Enterococcus sp.; Enterococcus faecium (GC 4556),32 µg/mL
same,MIC Enterococcus faecium (GC 4557),Enterococcus sp.; Enterococcus faecium (GC 4557),8 µg/mL
same,MIC Enterococcus faecalis (ATCC 29212),Enterococcus sp.; strain ATCC 29212,32 µg/mL
same,MIC Enterococcus faecalis (GC 2242),Enterococcus sp.; strain GC 2242,16 µg/mL
same,MIC Enterococcus faecium (GC 2243),Enterococcus sp.; strain GC 2243,32 µg/mL
same,MIC Enterococcus faecalis (GC 2691),Enterococcus sp.; strain GC 2691,32 µg/mL
same,MIC Enterococcus faecalis (GC 3059),Enterococcus sp.; strain GC 3059,32 µg/mL
same,MIC Enterococcus faecalis (GC 4552),Enterococcus sp.; strain GC 4552,32 µg/mL
same,MIC Enterococcus faecalis (GC 4553),Enterococcus sp.; strain GC 4553,32 µg/mL
same,MIC Enterococcus faecalis (GC 4554),Enterococcus sp.; strain GC 4554,32 µg/mL
same,MIC Enterococcus faecium (GC 4556),Enterococcus sp.; strain GC 4556,32 µg/mL
same,MIC Enterococcus faecium (GC 4557),Enterococcus sp.; strain GC 4557,8 µg/mL
same,MIC Enterococcus avium (GC 4558),Enterococcus sp.; strain GC 4558,32 µg/mL
same,MIC Enterococcus faecalis (GC 6189),Enterococcus sp.; strain GC 6189,32 µg/mL
same,MIC Escherichia coli (ATCC 25922),Escherichia coli; Escherichia coli (ATCC 25922),>64 µg/mL
same,MIC Escherichia coli (GC 4559),Escherichia coli; Escherichia coli (GC 4559),>64 µg/mL
same,MIC Escherichia coli (GC 4560),Escherichia coli; Escherichia coli (GC 4560),2 µg/mL
same,MIC Coagulase Negative Staphylococcus (GC 4547),Staphylococcus sp.,4 µg/mL
same,MIC Coagulase Negative Staphylococcus (GC 4548),Staphylococcus sp.,2 µg/mL
same,MIC Coagulase Negative Staphylococcus (GC 4549),Staphylococcus sp.,2 µg/mL
same,MIC Coagulase Negative Staphylococcus (GC 4551),Staphylococcus sp.,8 µg/mL
same,MIC Coagulase Negative Staphylococcus (GC 6257),Staphylococcus sp.,2 µg/mL
same,MIC Staphylococcus aureus (ATCC 29213),Staphylococcus sp.,4 µg/mL
same,MIC Staphylococcus aureus (GC 1131),Staphylococcus sp.,8 µg/mL
same,MIC Staphylococcus aureus (GC 3051),Staphylococcus sp.,2 µg/mL
same,MIC Staphylococcus aureus (GC 3053),Staphylococcus sp.,8 µg/mL
same,MIC Staphylococcus aureus (GC 4541),Staphylococcus sp.,4 µg/mL
same,MIC Staphylococcus aureus (GC 4542),Staphylococcus sp.,4 µg/mL
same,MIC Staphylococcus aureus (GC 4544),Staphylococcus sp.,4 µg/mL
same,MIC Staphylococcus aureus (GC 4545),Staphylococcus sp.,4 µg/mL
same,MIC Staphylococcus aureus-SMITH (GC 4543),Staphylococcus sp.,4 µg/mL
same,MIC Staphylococcus haemolyticus (GC 4546),Staphylococcus sp.,2 µg/mL
same,MIC Staphylococcus aureus (ATCC 29213),Staphylococcus sp.; strain ATCC 29213,4 µg/mL
same,MIC Staphylococcus aureus (GC 1131),Staphylococcus sp.; strain GC 1131,8 µg/mL
same,MIC Staphylococcus aureus (GC 3051),Staphylococcus sp.; strain GC 3051,2 µg/mL
same,MIC Staphylococcus aureus (GC 3053),Staphylococcus sp.; strain GC 3053,8 µg/mL
same,MIC Staphylococcus aureus (GC 4541),Staphylococcus sp.; strain GC 4541,4 µg/mL
same,MIC Staphylococcus aureus (GC 4542),Staphylococcus sp.; strain GC 4542,4 µg/mL
same,MIC Staphylococcus aureus (GC 4544),Staphylococcus sp.; strain GC 4544,4 µg/mL
same,MIC Staphylococcus aureus (GC 4545),Staphylococcus sp.; strain GC 4545,4 µg/mL
same,MIC Staphylococcus haemolyticus (GC 4546),Staphylococcus sp.; strain GC 4546,2 µg/mL
same,MIC Coagulase Negative Staphylococcus (GC 4547),Staphylococcus sp.; strain GC 4547,4 µg/mL
same,MIC Coagulase Negative Staphylococcus (GC 4548),Staphylococcus sp.; strain GC 4548,2 µg/mL
same,MIC Coagulase Negative Staphylococcus (GC 4549),Staphylococcus sp.; strain GC 4549,2 µg/mL
same,MIC Coagulase Negative Staphylococcus (GC 4551),Staphylococcus sp.; strain GC 4551,8 µg/mL
same,MIC Coagulase Negative Staphylococcus (GC 6257),Staphylococcus sp.; strain GC 6257,2 µg/mL
same,MIC Staphylococcus aureus-SMITH (GC 4543),Staphylococcus sp.; strain SMITH GC 4543,4 µg/mL
same,MIC Streptococcus pneumoniae (ATCC 6301),Streptococcus sp.; strain ATCC 6301,1 µg/mL
same,MIC Streptococcus pneumoniae (GC 1894),Streptococcus sp.; strain GC 1894,0.5 µg/mL
same,MIC Streptococcus pyogenes (GC 4563),Streptococcus sp.; strain GC 4563,1 µg/mL
same,MIC Streptococcus agalactiae (GC 4564),Streptococcus sp.; strain GC 4564,2 µg/mL
same,MIC Streptococcus pneumoniae (GC 4565),Streptococcus sp.; strain GC 4565,1 µg/mL

# Source: patent US6914045B2, “Glycopeptide antibiotics” (Wyeth Holdings Corporation, priority 2001, dated 2005)
